According to patent publication US6833456B2, “Indolyl-urea derivatives of thienopyridines useful as antiangiogenic agents, and methods for their use” (Agouron Pharmaceuticals, Inc., priority 2002, dated 2004):

Key:
[1] = target: T1, unphosphorylated VEGF-R2Δ50 (FLVK) (Homo sapiens, UniProt P35968, DEL940-989/E990V); assay: VEGF-R2 coupled spectrophotometric assay, unphosphorylated construct (FLVK); format: biochemical; details: for inhibition at 0.05 µM: percent inhibition at 50 nM
T1 construct: VEGF-R2Δ50 contains residues 806-939 and 990-1171; made in house; host or cells: baculovirus/insect cell system
Text: This construct determines the ability of a test compound to inhibit tyrosine kinase activity. A construct (VEGF-R2Δ50) of the cytosolic domain of human vascular endothelial growth factor receptor 2 (VEGF-R2) lacking the 50 central residues of the 68 residues of the kinase insert domain was expressed in a baculovirus/insect cell system. Of the 1356 residues of full-length VEGF-R2, VEGF-R2Δ50 contains residues 806-939 and 990-1171, and also one point mutation (E990V) within the kinase insert domain relative to wild-type VEGF-R2. Autophosphorylation of the purified construct was performed by incubation of the enzyme at a concentration of 4 μM in the presence of 3 mM ATP and 40 mM MgCl2 in 100 mM HEPES, pH 7.5, containing 5% glycerol and 5 mM DTT, at 4° C. for 2 h. […] See Parast et al., Biochemistry, 37, 16788-16801 (1998).
The production of ADP from ATP that accompanies phosphoryl transfer was coupled to oxidation of NADH using phosphoenolpyruvate (PEP) and a system having pyruvate kinase (PK) and lactic dehydrogenase (LDH). The oxidation of NADH was monitored by following the decrease of absorbance at 340 nm ([…]=6.22 cm^−1 mM^−1) using a Beckman DU 650 spectrophotometer. Assay conditions for phosphorylated VEGF-R2Δ50 (indicated as FLVK-P in the tables below) were the following: 1 mM PEP; 250 μM NADH; 50 units of LDH/mL; 20 units of PK/mL; 5 mM DTT; […]; 1 mM ATP; and 25 mM MgCl2 in 200 mM HEPES, pH 7.5. Assay conditions for unphosphorylated VEGF-R2Δ50 (indicated as FLVK in the tables) were the following: 1 mM PEP; 250 μM NADH; 50 units of LDH/mL; 20 units of PK/mL; 5 mM DTT; […]; 3 mM ATP; and 60 mM MgCl2 and 2 mM MnCl2 in 200 mM HEPES, pH 7.5. Assays were initiated with 5 to 40 nM of enzyme. Ki values were determined by measuring enzyme activity in the presence of varying concentrations of test compounds. The percent inhibition at 50 nm (% inhibition@ 50 nm) was determined by linear least-squares regression analysis of absorbance as a function of time. The binding inhibitions were fitted to equation as described by Morrison. The data were analyzed using Enzyme Kinetic and Kaleidagraph software.

PDGFRβ = target: T2, PDGFRβ (Homo sapiens, UniProt P09619); assay: PAE-PDGFRβ phosphorylation in PAE-PDGFRB cells assay; format: cell-based; details: PAE cells overexpressing human PDGFRβ, PDGF-BB stimulated; read-out: PAE PDGFR autophos IC50
T2 construct: expressed in transfected cells; host or cells: porcine aorta endothelial (PAE) cells
Description: This assay determines the ability of a test compound to inhibit the autophosphorylation of PDGFRβ in porcine aorta endothelial (PAE)-PDGFRβ cells. PAE cells that overexpress human PDGFRβ were used in this assay. The cells were cultured in Ham's F12 media supplemented with 10% fetal bovine serum (FBS) and 400 ug/ml G418. Twenty thousands cells were seeded in each well of a 96-well plate in 50 μL of growth media and allowed to attach for 6 hours at 37° C. Cells were then exposed to the starvation media (Ham's F12 media supplemented with 0.1% FBS) for 16 hours. After the starvation period was over, 10 μL of test agent in 5% DMSO in starvation media were added to the test wells and 10 μL of the vehicle (5% DMSO in starvation media) were added into the control wells. The final DMSO concentration in each well was 0.5%. Plates were incubated at 37° C. for 1 hour and the cells were then stimulated with 1 μg/mL PDGF-BB (R & D System) in the presence of 2 mM Na3VO4 for 8 minutes. The cells were washed once with 1 mm Na3VO4 in HBSS and lysed by adding 50 μL per well of lysis buffer. One hundred μL of dilution buffer were then added to each well and the diluted cell lysate was transferred to a 96-well goat ant-rabbit coated plate (Pierce), which was pre-coated with Rabbit anti Human PDGFRβ antibody (Santa Cruz). The plates were incubated at room temperature for 2 hours and washed seven times with 1% Tween 20 in PBS. HRP-PY20 (Santa Cruz) was diluted and added to the plate for a 30-minute incubation. Plates were then washed again and TMB peroxidase substrate (Kirkegaard & Perry) was added for a 10-minute incubation. One hundred μL of 0.09 N H2SO4 was added into each well of the 96-well plate to stop the reaction. Phosphorylation status was assessed by spectrophotometer reading at 450 nm. IC50 values were calculated by curve fitting using a four-parameter analysis.

Mouse PK assay = format: in vivo, B6 female mice; details: po
Description: The pharmacokinetics (e.g., absorption and elimination) of drugs in mice were analyzed using the following experiment. Test compounds were formulated as a suspension in a 30:70 (PEG 400: acidified H2O) vehicle. This solution was administered orally (p.o.) and intraperitoneally (i.p.) at 50 mg/kg to two distinct groups (n=4) of B6 female mice. Blood samples were collected via an orbital bleed at time points: 0 hour (pre-dose), 0.5 hr, 1.0 hr, 2.0 hr, and 4.0 hr post dose. Plasma was obtained from each sample by centrifugation at 2500 rpm for 5 min. Test compound was extracted from the plasma by an organic protein precipitation method. For each time bleed, 50 μL of plasma was combined with 1.0 mL of acetonitrile, vortexed for 2 min. and then spun at 4000 rpm for 15 min. to precipitate the protein and extract out the test compound. Next, the acetonitrile supernatant (the extract containing test compound) was poured into new test tubes and evaporated on a hot plate (25° C.) under a steam of N2 gas. To each tube containing the dried test compound extract, 125 μL of mobile phase (60:40, 0.025 M NH4H2PO4+2.5 mL/L TEA:acetonitrile) was added. The test compound was resuspended in the mobile phase by vortexing and more protein was removed by centrifugation at 4000 rpm for 5 min. Each sample was poured into an HPLC vial for test compound analysis on an Hewlett Packard 1100 series HPLC with UV detection. From each sample, 95 μL was injected onto a Phenomenex-Prodigy reverse phase C-18, 150×3.2 mm column and eluted with a 45-50% acetonitrile gradient run over 10 min. Test-compound plasma concentrations (μg/mL) were determined by a comparison to standard curve (peak area vs. conc. μg/mL) using known concentrations of test compound extracted from plasma samples in the manner described above. Along with the standards and unknowns, three groups (n=4) of quality controls (0.25 μg/mL, 1.5 μg/mL, and 7.5 μg/mL) were run to insure the consistency of the analysis. […] The quantitated test samples were plotted for visual display using Kaleidagraph software and their pharmacokinetic parameters were determined using WIN NONLIN software.

T2 sequence (P09619 33-1106): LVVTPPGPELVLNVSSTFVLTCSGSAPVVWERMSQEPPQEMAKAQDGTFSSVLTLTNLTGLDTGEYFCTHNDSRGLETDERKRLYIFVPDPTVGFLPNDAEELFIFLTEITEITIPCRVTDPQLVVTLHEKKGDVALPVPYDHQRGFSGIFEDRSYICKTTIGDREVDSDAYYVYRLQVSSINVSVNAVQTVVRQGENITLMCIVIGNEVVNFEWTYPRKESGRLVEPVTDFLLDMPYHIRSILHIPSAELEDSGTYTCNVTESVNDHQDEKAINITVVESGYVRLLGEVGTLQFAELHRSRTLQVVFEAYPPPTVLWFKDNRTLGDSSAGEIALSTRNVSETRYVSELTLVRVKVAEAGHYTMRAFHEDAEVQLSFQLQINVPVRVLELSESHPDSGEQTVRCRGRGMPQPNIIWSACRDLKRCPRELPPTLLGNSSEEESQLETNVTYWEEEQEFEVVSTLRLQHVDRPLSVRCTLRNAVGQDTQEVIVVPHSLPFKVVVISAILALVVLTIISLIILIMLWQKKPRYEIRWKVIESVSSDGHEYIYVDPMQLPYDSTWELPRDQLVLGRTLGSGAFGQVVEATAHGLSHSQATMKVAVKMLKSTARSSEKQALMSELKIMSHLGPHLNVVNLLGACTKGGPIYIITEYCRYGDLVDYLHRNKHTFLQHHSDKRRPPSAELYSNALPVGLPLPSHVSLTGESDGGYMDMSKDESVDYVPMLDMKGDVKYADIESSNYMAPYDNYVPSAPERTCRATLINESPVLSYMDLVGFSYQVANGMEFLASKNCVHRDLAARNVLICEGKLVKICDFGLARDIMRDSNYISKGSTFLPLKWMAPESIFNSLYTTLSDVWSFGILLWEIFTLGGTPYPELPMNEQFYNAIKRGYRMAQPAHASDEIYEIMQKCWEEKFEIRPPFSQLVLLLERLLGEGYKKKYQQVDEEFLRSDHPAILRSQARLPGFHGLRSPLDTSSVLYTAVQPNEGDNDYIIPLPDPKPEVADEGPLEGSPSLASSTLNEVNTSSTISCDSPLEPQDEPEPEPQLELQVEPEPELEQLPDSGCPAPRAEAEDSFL
T1 sequence (P35968 with tags, fused parts or gaps DEL940-989/E990V limits assumed): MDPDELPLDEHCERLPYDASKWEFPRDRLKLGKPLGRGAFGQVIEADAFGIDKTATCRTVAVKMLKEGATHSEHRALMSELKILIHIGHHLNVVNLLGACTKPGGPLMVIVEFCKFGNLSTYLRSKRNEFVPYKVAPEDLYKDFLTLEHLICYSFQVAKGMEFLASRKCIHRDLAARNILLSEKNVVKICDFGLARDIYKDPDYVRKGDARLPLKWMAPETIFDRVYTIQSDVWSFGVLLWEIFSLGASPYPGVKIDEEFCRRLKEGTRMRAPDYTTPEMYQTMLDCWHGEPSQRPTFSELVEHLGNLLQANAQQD

SMILES	Ki [1] [nM]	inhibition at 0.05 µM [1] [%]	IC50 (PDGFRβ) [nM]	Mouse Cmin, po (Mouse PK assay) [ng/mL]	AUC (Mouse PK assay; female, B6, mouse, plasma, 50 mg/kg) [ng·h/mL]	Cmax (Mouse PK assay; female, B6, mouse, plasma, 50 mg/kg, p.o., 50 mg/kg, read-out: Mouse Cmax, po ng-h/mL) [ng/mL]
CNC(=O)n1c(C)cc2cc(Nc3ccnc4cc(C(=O)N5CC(F)[C@H](O)C5)sc34)ccc21 (stereo partly drawn) [Example 7b, 5-[(2-{[(4R)-3-Fluoro-4-hydroxypyrrolidin-1-yl]carbonyl}thieno[3,2-b]pyridin-7-yl)amino]-N,2-dimethyl-1H-indole-1-carboxamide]	0.406	95	> 1000	–	–	–
C#CCNC(=O)n1c(C)cc2c(F)c(Oc3ccnc4cc(C(=O)N5CCC(O)C5)sc34)ccc21 (stereo in doubt) [Example 5k, 4-Fluoro-5-[2-(3R-hydroxy-pyrrolidine-1-carbonyl)-thieno[3,2-b]pyridin-7-yloxy]-2-methyl-indole-1-carboxylic acid prop-2-ynylamide]	0.148	99	–	16470	–	–
C#CCNC(=O)n1c(C)cc2cc(Nc3ccnc4cc(C(=O)N5CC[C@H](OC)C5)sc34)ccc21 [Example 1h, 5-[2-(3S-Methoxy-pyrrolidine-1-carbonyl)-thieno[3,2-b]pyridin-7-ylamino]-2-methyl-indole-1-carboxylic acid prop-2-ynylamide]	1.23	94	57.7	–	–	–
COC[C@H]1CCCN1C(=O)c1cc2nccc(Oc3ccc4[nH]c(C)c(C(=O)NC5CC5)c4c3)c2s1 [Example 4y, 5-[2-(2R-Methoxymethyl-pyrrolidine-1-carbonyl)-thieno[3,2-b]pyridin-7-yloxy]-2-methyl-1H-indole-3-carboxylic acid cyclopropylamide]	24	10	–	11	383	265
CO[C@H]1CN(C(=O)c2cc3nccc(Oc4ccc5c(c4)cc(C)n5C(=O)NC4CC4)c3s2)C[C@H]1OC [Example 4t, 5-[2-(3,4-cis-Dimethoxy-pyrrolidine-1-carbonyl)-thieno[3,2-b]pyridin-7-yloxy]-2-methyl-indole-1-carboxylic acid cyclopropylamide]	0.594	98	–	–	–	–
C#CCNC(=O)n1c(C)cc2c(F)c(Oc3ccnc4cc(C(=O)N5CC[C@@H](OC)C5)sc34)ccc21 [Example 5o, 4-Fluoro-5-[2-((R)-3-methoxy-pyrrolidine-1-carbonyl)-thieno[3,2-b]pyridin-7-yloxy]-2-methyl-indole-1-carboxylic acid prop-2-ynylamide]	0.09	99	3.65	–	–	–
CNC(=O)n1c(C)cc2cc(Nc3ccnc4cc(C(=O)N5CCC5)sc34)ccc21 [Example 7c, 5-[2-(Azetidine-1-carbonyl)-thieno[3,2-b]pyridin-7-ylamino]-2-methyl-indole-1-carboxylic acid methylamide]	1.91	97	–	–	–	–
CNC(=O)n1c(C)cc2cc(Oc3ccnc4cc(-c5nc(CO)cs5)sc34)ccc21 [Example 3m]	0.2	83	2.48	–	–	–

Results, then the compound that gave them:

Ki [1] [nM]	inhibition at 0.05 µM [1] [%]	IC50 (PDGFRβ) [nM]	Mouse Cmin, po (Mouse PK assay) [ng/mL]	AUC (Mouse PK assay; female, B6, mouse, plasma, 50 mg/kg) [ng·h/mL]	Cmax (Mouse PK assay; female, B6, mouse, plasma, 50 mg/kg, p.o., 50 mg/kg, read-out: Mouse Cmax, po ng-h/mL) [ng/mL]	SMILES
141	5	> 1000	–	–	–	CNC(=O)n1c(C)cc2cc(Nc3ncnc4sc(C(=O)N5CCC[C@H]5COC)cc34)ccc21 [Example 12b, 5-[6-(2-Methoxymethyl-pyrrolidine-1-carbonyl)-thieno[2,3-b]pyrimidin-4-ylamino]-2-methyl-indole-1-carboxylic acid methylamide]
4.55	68	> 1000	–	–	–	CNC(=O)c1c(C)n(C(=O)NC)c2ccc(Oc3ccnc4cc(C(=O)N5CC[C@@H](N(C)C)C5)sc34)cc12 [Example 8a, 5-[(2-{[(3R)-3-(Dimethylamino)pyrrolidin-1-yl]carbonyl}thieno[3,2-b]pyridin-7-yl)oxy]-N,N′,2-trimethyl-1H-indole-1,3-dicarboxamide]
0.109	99	–	–	–	–	CNC(=O)n1c(C)cc2cc(Oc3ccnc4cc(C(=O)N5C[C@H](O)[C@@H](O)C5)sc34)ccc21 [Example 8d]
34.3	14	–	–	–	–	CCOC(=O)c1cc2c(Oc3ccc4c(c3)cc(C)n4C(=O)NC)ncnc2s1 [Example 12c, 4-(2-Methyl-1-methylcarbamoyl-1H-indol-5-yloxy)-thieno[2,3-b]pyrimidine-6-carboxylic acid ethyl ester]
